# Data reported in patent US20190038784A1, “TAU PET IMAGING LIGANDS” (Janssen Pharmaceutica NV, priority 2016, published 2019).
# Legend:
# [1] = tested on: neurofibrillary tangles (NFTs) in AD brain slices; assay: Autoradiography blocking study of [18F]Co. No. 1 on human AD brain slices; assay type: binding; settings: 1 μM cold blocker, Braak stage V-VI slices
# Procedure: Air-dried frozen, 20-μm-thick slices of an AD-patient (Braak stage V-VI) were incubated for 60 min with [^18F]Co. No. 1 (7.4 kBq/500 JpL per section) and subsequently washed with mixtures of phosphate buffered saline (PBS) and ethanol as described elsewhere (Xia C F, Arteaga J, Chen G, et al. [(18)F]T807, a novel tau positron emission tomography imaging agent for Alzheimer's disease. Alzheimers Dement. 2013, 1-11, doi: 10.1016/i.ialz.2012.11.008). To assess specificity of binding, slices were incubated with tracer in the presence of 1 μM of authentic T808 or […].
# No. 1. After drying, slices were exposed to a phosphor storage screen (super-resolution screen, Perkin Elmer). Screens were read in a Cyclone Plus system (Perkin Elmer, Waltham, Mass., U.S.A.) and analyzed using Optiquant software. Results are expressed as digital light units per square mm (DLU/mm^2). Adjacent AD slices were immunostained with anti-tau (AT8) and anti-Aβ antibodies (AG8), to correlate with [^18F]Co. No. 1 binding. […] The binding pattern corresponds well with the Tau pathology as detected with AT8 IHC on adjacent slides (see FIG. 1). To assess the specificity of the tracer binding to neurofibrillary tangles (NFTs), blocking studies with authentic Co. No. 1 and T808 were performed. […] Blocking percentages were calculated as (DLU/mm^2 in the presence of […] blocker)/(DLU/mm^2 tracer only).
# [2] = tested on: extracted human tau (aggregated tau, PHF); assay: Competitive radioligand binding assay with [3H]-T808 on aggregated tau preps from human AD brain; settings: Aβ Ki versus Tau Ki
# Procedure: (§1) Enriched aggregated tau fractions were prepared according to a slightly modified version of the protocol described by Greenberg and Davies (Greenberg S G, Davies P. A preparation of Alzheimer paired helical filaments that display distinct tau proteins by polyacrylamide gel electrophoresis. Proc. Natl. Acad. Sci. 1990; 87: 5827-5831) using human AD brain tissue (occipital cortex with high tau fibril load). Briefly, frozen human AD brain samples (˜10 g) were homogenized with 10 vol of cold homogenization buffer (10 mM Tris, 800 mM NaCl, 1 mM EGTA, 10% sucrose, pH 7.4 containing PhosSTOP phosphatase and cOmplete EDTA-free protease inhibitor (Roche, Vilvoorde, Belgium)) on ice. After centrifugation at 27 000×g for 20 min at 4° C. the supernatant was recovered and 1% (w/v) N-lauroylsarcosine and 1% (v/v) 2-mercaptoethanol were added. The N-lauroylsarcosine/2-mercaptoethanol supernatant was incubated for 2 h at 37° C. while shaking on an orbital shaker. Subsequently, ultracentrifugation at 108 000×g for 1.5 h at room temperature enriched aggregated tau in the pellet. Supematant was removed and the pellet was carefully rinsed twice with a small amount of TBS (50 mM Tris, 150 mM NaCl, pH 7.4). Finally, the aggregated tau pellet was recovered in TBS and resuspended to ensure sample homogeneity. Small aliquots were stored at −80° C.
# (§2) The competitive radioligand binding assays measure the binding of a radiolabeled reference ligand in the presence of a dose response concentration range of test compounds.
# (§3) Briefly, aggregated tau preps were diluted to 100 μg protein/ml in PBS buffer with 5% ethanol. In a 96-well format, ^3H-T808 (specific activity; 32.97 Ci/mmol) was added at a final concentration of 10 nM to increasing amounts of test compound in the presence of 20 μg protein of aggregated tau prep. Nonspecific binding was defined as the number of counts remaining in the presence of 50 μM Thioflavin T (common beta sheet binder). After 2 h incubation at room temperature, the unbound ligand is removed by filtration of the binding mixtures over GF/B glass filters using a Filtermate 96 harvester instrument (Perkin Elmer, Zaventem, Belgium). The filters were washed three times with PBS buffer containing 20% ethanol. After overnight drying of the filter plate, Microscint O liquid (Perkin Elmer) was added and the amount of radiolabeled ligand bound to the fibrils is measured by liquid scintillation counting in a Topcount instrument (Packard Instrument Company, Connecticut, USA)
# (§4) Values for half-maximal inhibitory concentration (IC50) were determined from displacement curves of at least two independent experiments using GraphPad Prism software (GraphPad Software, San Diego, Calif.).
# [3] = target: T1, extracted human tau (aggregated tau, PHF) (Homo sapiens, UniProt P10636); assay: as above; settings: for Ki: mean of at least two measurements with SD, calculated from IC50, KD PHF 6.275 nM, 10 nM RL; for IC50: radiolabel displacement of [3H]-T808, 10 nM, read-out: pIC50, binding to extracted human tau (converted)
# T1 construct: Tau Ki; other: mean of at least two measurements with SD; other: radiolabel displacement of [3H]-T808, 10 nM
# T1 sequence (P10636 623-695 limits assumed): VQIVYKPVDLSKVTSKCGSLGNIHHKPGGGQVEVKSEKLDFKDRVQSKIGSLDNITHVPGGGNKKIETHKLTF
# Procedure: as §1, §2, §3, §4
# [4] = target: T2, extracted human amyloid-beta aggregates (Homo sapiens, UniProt P05067); assay: Competitive radioligand binding assay with [3H]-AV-45 on amyloid plaque preps from human AD brain; settings: for Ki: calculated from IC50, KD Aβ 7.85 nM for 3H-AV45, 10 nM RL; for binding to extracted human amyloid-beta aggregates: up to 10 μM, radiolabel displacement of [3H]-AV-45
# T2 construct: from tissue; host or cells: human AD brain, occipital cortex
# T2 sequence (P05067 672-713 limits assumed): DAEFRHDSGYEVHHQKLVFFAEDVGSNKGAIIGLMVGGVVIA
# Procedure: Enriched aggregated β-amyloid preps were prepared from frozen human AD brain samples (10 g—occipital cortex with high amyloid plaques load) that were homogenized with 7-fold vol of cold homogenization buffer (250 mM sucrose, 20 mM Tris base, 1 mM EDTA, 1 mM EGTA and PhosSTOP phosphatase and cOmplete EDTA-free protease inhibitor) on ice. After centrifugation at 27 000×g for 20 min at 4° C. cell debris was removed. Supematant containing amyloid plaques was aliquoted and stored at −80° C.
# as §2, §4
# To determine compound binding to aggregated β-amyloid a similar assay was put in place but with some minor modifications. Briefly, amyloid preps were diluted to 150 μg protein/ml in 50 mM Tris with 0.1% BSA and 5% ethanol. ^3H-AV-45 (florbetapir-specific activity; 45.95 Ci/mmol) was added at a final concentration of 10 nM to increasing amounts of test compound in the presence of 30 μg protein of amyloid plaques prep. Nonspecific binding was determined in the presence of 500 μM Thioflavin T. After 150 min incubation at room temperature, the binding mixtures were filtered over GF/B glass filters. The filters were washed three times with PBS buffer containing 20% ethanol. Subsequent steps were identical to those described for the aggregated tau preps.
# [5] = MicroPET imaging, rhesus monkey (experiment 1); assay type: in vivo, rhesus monkey (macaca mulatta); settings: baseline scan
# Procedure: A dynamic 120-min microPET scan with [^18F]Co. No. 1 or [^18F]T807 was performed on a Focus™ 220 microPET scanner (Concorde Microsystems, Knoxville, Tenn., USA) on, respectively, a female rhesus monkey (9 year-old macaca mulatta, 5.3 kg) and a male rhesus monkey (6 year-old macaca mulatta, 7.6 kg), that was sedated with ketamine (Ketalar®) and xylazine (Rompun®) via intramuscular (IM) injection. During scanning the monkey received repeatedly an additional dose of ketamine/xylazine via IV injection. The O2 saturation in the blood, the breathing frequency and heartrate were monitored during the entire experiment. The head of the animal was placed central, in the field of view, of the microPET scanner. Scans were acquired in list mode and acquisition data were Fourier rebinned in 24 time frames (4×15 s, 4×60 s, 5×180 s, 8×300 s, 3×600 s). Data were reconstructed using a 3D maximum a posteriori (3D-MAP) iterative reconstruction. TACs of the whole brain, corpus callosum, cerebellum and entorhinal cortex were generated using VOIs with PMOD software. Radioactivity concentration in the brain is expressed as SUV as a function of time after tracer injection (FIGS. 5a and 5b). Scans were started immediately after IV injection of 185 MBq of [^18F]Co. No. 1 of [^18F]T807 via the vena saphena of the right leg. […]
# [6] = MicroPET imaging, rhesus monkey (experiment 2); assay type: in vivo, rhesus monkey (Macaca mulatta); settings: baseline scan
# Procedure: A dynamic 120-min μPET scan with [^18F]Co. No. 1 or [^18F]T807 was performed with a Focus 220 μPET scanner on a male rhesus monkey (6 y-old Macaca mulatta, 7.6 kg), that was sedated with ketamine (Ketalar®) and xylazine (Rompun®) via intramuscular (IM) injection. During scanning the monkey received repeatedly an additional dose of ketamine/xylazine via i.v. injection. O2 saturation in blood, breathing frequency and heartbeat frequency were monitored during the entire experiment. The head of the animal was placed central in the field of view of the μPET scanner. Scans were acquired in list mode and Fourier rebinned in 24 time frames (4×15 s, 4×60 s, 5×180 s, 8×300 s, 3×600 s). Data were reconstructed using a 3D maximum a posteriori (3D-MAP) iterative reconstruction. TACs of the whole brain were generated using VOIs with PMOD software. Radioactivity concentration in the brain is expressed as SUV as a function of time after tracer injection. Scans were started immediately after i.v. injection of 185 MBq of [^18F]Co. No. 1 or [^18F]T807 via the vena saphena of the right leg. Results of the 120-min baseline scan of [^18F]Co. No. 1 and [^18F]T807 are shown in FIGS. 7a and 7b, respectively. […] TACs of the baseline scan of [^18F]T807 in the brain show a slower initial brain uptake (SUV value of ˜1.3, time to peak uptake: 15 min) and wash-out (FIG. 8). […]
# [7] = MicroPET imaging, Wistar rats; assay type: in vivo; settings: baseline scan, whole brain, IV 50 MBq
# Procedure: Dynamic 120 min microPET scans were performed on a Focus™ 220 microPET scanner (Concorde Microsystems, Konxville, Tenn., USA) on three female Wistar rats simultaneously, which were kept under gas anesthesia during the whole procedure (2.5% isoflurane in 02 at 1 L/min flow rate). The head of the animals was placed central, in the field of view, of the microPET scanner. Scans were acquired in list mode and acquisition data were Fourier rebinned in 24 time frames (4×15 s, 4×60 s, 5×180 s, 8×300 s, 3×600 s). Data, which were 3D maximum a posteriori (3D-MAP) reconstructed, were manually aligned with a rat brain [^18F]FDG template in Paxinos coordinates using an affine transformation, to allow predefined volumes of interest (VOIs) analysis. Time-activity curves (TACs) of the whole brain were generated using VOIs with PMOD software (v 3.2, PMOD Technologies Ltd., Zdtrich, Switzerland). Radioactivity concentration in the brain was expressed as standardized uptake value (SUV, calculated as (radioactivity in Bq in brain/mL)/(total injected dose (Bq)/body weight in g)) as a function of time after tracer injection. Scans were started immediately after IV injection of 50 MBq [^18F]Co. No. 1 or [^18F]T807 (n=3/tracer). […]
SMILES,inhibition of [18F]Co. No. 1 binding to AD brain slices [1],Selectivity (ratio) [2],Ki [3],IC50 [3],Ki [4],binding to extracted human amyloid-beta aggregates [4],wash-out from brain [5],"initial brain uptake, SUV value ([5]; brain, IV 185 MBq)",time to peak uptake ([6]; brain),"initial brain uptake, SUV value ([6]; i.v. 185 MBq, male monkey)","initial brain uptake, SUV value in the brain [7]"
"FCCC1CCN(c2ccn3c(n2)nc2ccccc23)CC1 [T808, 2-[4-(2-fluoroethyl)-1-piperidinyl]-pyrimido[1,2-a]benzimidazole, reference compound]",98%,,,,,,,,,,
Cc1cc(Nc2ccc3nc(F)ccc3n2)ccn1 [Co. No. 1],99%,>540,7.9 ± 2.5 nM,20 nM,> 4400 nM,no measurable binding,,,,,
"Fc1ccc(-c2ccc3c(c2)[nH]c2ccncc23)cn1 [[^18F]T807, 7-(6-fluoropyridin-3-yl)-5H-pyrido[4,3-b]indole]",,,,,,,slower wash-out,~1.3,15 min,~1.3,~1.6
Cc1cnccc1Nc1ccc2nc(F)ccc2n1 [Co. No. 2],,>325,13.5 ± 2.2 nM,31.6 nM,> 4400 nM,no measurable binding,,,,,
Fc1ccc2nc(Nc3ccncc3)ccc2n1 [Co. No. 3],,>380,11.3 ± 2.8 nM,25.1 nM,> 4400 nM,no measurable binding,,,,,
